Reference: the supplement of paper PMC10307832

Legend:
Test in all cases: relative viability (nuclei count vs DMSO), 5 days (fraction); higher = more cells survive
[1] = compound: COc1cc2ncn(-c3cc(OCc4ccccc4C(F)(F)F)c(C(N)=O)s3)c2cc1OC + CC(=O)c1c(C)c2cnc(Nc3ccc(N4CCNCC4)cn3)nc2n(C2CCCC2)c1=O [Palbociclib] (partner 0.5 µM)
How it was run: (§1)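 One day after seeding in 1536-well plates, lung cancer cell lines were dosed by pin tool. Dosing was either single-drug or a fixed anchor-drug dose plus five library-drug doses (not always all listed) in √10 steps. After 5 days, nuclei were stained in one fix-and-stain step and counted on 4× images, and relative viability is the nuclei count of treated wells over that of vehicle wells, given as the median of duplicate plates.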

[2] = compound: COc1cc2ncn(-c3cc(OCc4ccccc4C(F)(F)F)c(C(N)=O)s3)c2cc1OC + CCNC(=O)c1noc(-c2cc(C(C)C)c(O)cc2O)c1-c1ccc(CN2CCOCC2)cc1 [Luminespib] (partner 0.01 µM)
How it was run: as §1

[3] = compound: COc1cc2ncn(-c3cc(OCc4ccccc4C(F)(F)F)c(C(N)=O)s3)c2cc1OC + COc1cccc2cc(-c3nc([C@H]4CC[C@H](C(=O)O)CC4)n4ncnc(N)c34)[nH]c12 [OSI-027] (partner 0.5 µM)
How it was run: as §1

[4] = compound: COc1cc2ncn(-c3cc(OCc4ccccc4C(F)(F)F)c(C(N)=O)s3)c2cc1OC + CS(=O)(=O)N1CCN(Cc2cc3nc(-c4cccc5[nH]ncc45)nc(N4CCOCC4)c3s2)CC1 [Pictilisib] (partner 1 µM)
How it was run: as §1

| Cell Line | relative viability ([1]; first compound 0.05 µM) | relative viability ([1]; first compound 0.1581 µM) | relative viability ([1]; first compound 0.5 µM) | relative viability ([1]; first compound 1.581 µM) | relative viability ([1]; first compound 5 µM) | relative viability ([2]; first compound 0.05 µM) | relative viability ([2]; first compound 0.1581 µM) | relative viability ([2]; first compound 0.5 µM) | relative viability ([2]; first compound 1.581 µM) | relative viability ([2]; first compound 5 µM) | relative viability ([3]; first compound 0.05 µM) | relative viability ([3]; first compound 0.1581 µM) | relative viability ([3]; first compound 0.5 µM) | relative viability ([3]; first compound 1.581 µM) | relative viability ([3]; first compound 5 µM) | relative viability ([4]; first compound 0.05 µM) | relative viability ([4]; first compound 0.1581 µM) | relative viability ([4]; first compound 0.5 µM) | relative viability ([4]; first compound 1.581 µM) | relative viability ([4]; first compound 5 µM) |
| --- | --- | --- | --- | --- | --- | --- | --- | --- | --- | --- | --- | --- | --- | --- | --- | --- | --- | --- | --- | --- |
| NCI-H2228 | 0.767 | 0.328 | 0.352 | 0.192 | 0.259 | 0.114 | 0.159 | 0.147 | 0.139 | 0.126 | 0.662 | 0.558 | 0.192 | 0.134 | 0.179 | 0.331 | 0.423 | 0.237 | 0.165 | 0.303 |
| NCI-H2170 | 0.401 | 0.371 | 0.212 | 0.165 | 0.148 | 0.4 | 0.845 | 0.415 | 0.189 | 0.177 | 0.703 | 0.667 | 0.365 | 0.173 | 0.183 | 0.342 | 0.318 | 0.188 | 0.192 | 0.156 |
| EMC-BAC-2 | 0.478 | 0.512 | 0.476 | 0.376 | 0.272 | 1.19 | 1.22 | 0.931 | 0.569 | 0.219 | 0.37 | 0.429 | 0.29 | 0.194 | 0.172 | 0.581 | 0.46 | 0.526 | 0.352 | 0.139 |
| NCI-H23 | 0.313 | 0.408 | 0.285 | 0.148 | 0.121 | 0.211 | 0.209 | 0.213 | 0.206 | 0.22 | 0.638 | 0.561 | 0.316 | 0.117 | 0.0957 | 0.451 | 0.339 | 0.228 | 0.148 | 0.117 |
| SK-LU-1 | 0.404 | 0.355 | 0.349 | 0.212 | 0.214 | 0.223 | 0.238 | 0.203 | 0.217 | 0.193 | 0.33 | 0.332 | 0.168 | 0.196 | 0.188 | 0.568 | 0.516 | 0.423 | 0.213 | 0.178 |
| NCI-H358 | 0.139 | 0.126 | 0.11 | 0.0792 | 0.0843 | 0.26 | 0.378 | 0.29 | 0.102 | 0.13 | 0.744 | 0.726 | 0.549 | 0.0578 | 0.067 | 0.362 | 0.347 | 0.293 | 0.148 | 0.14 |
| LC-2-ad | 0.457 | 0.422 | 0.401 | 0.237 | 0.194 | 0.759 | 0.857 | 0.515 | 0.293 | 0.29 | 0.813 | 0.754 | 0.393 | 0.289 | 0.254 | 0.383 | 0.108 | 0.0797 | 0.0935 | 0.0834 |
| HCC-15 | 0.729 | 0.702 | 0.519 | 0.167 | 0.141 | 0.312 | 0.291 | 0.149 | 0.101 | 0.0855 | 0.713 | 0.635 | 0.269 | 0.127 | 0.104 | 0.69 | 0.707 | 0.549 | 0.163 | 0.125 |
| NCI-H2405 | 0.511 | 0.508 | 0.382 | 0.343 | 0.332 | 0.76 | 0.601 | 0.341 | 0.283 | 0.338 | 0.647 | 0.613 | 0.384 | 0.357 | 0.268 | 0.512 | 0.265 | 0.458 | 0.366 | 0.27 |
| LXF-289 | 0.607 | 0.57 | 0.481 | 0.233 | 0.107 | 0.42 | 0.483 | 0.259 | 0.0958 | 0.0607 | 0.815 | 0.755 | 0.214 | 0.0606 | 0.0476 | 0.789 | 0.752 | 0.447 | 0.0857 | 0.0529 |
| CAL-12T | 0.411 | 0.422 | 0.381 | 0.187 | 0.148 | 0.858 | 0.44 | 0.446 | 0.217 | 0.102 | 0.535 | 0.411 | 0.149 | 0.129 | 0.141 | 0.351 | 0.389 | 0.323 | 0.186 | 0.177 |
| COR-L23 | 0.27 | 0.335 | 0.22 | 0.119 | 0.111 | 0.363 | 0.604 | 0.249 | 0.104 | 0.0965 | 0.697 | 0.644 | 0.679 | 0.117 | 0.0946 | 0.876 | 0.9 | 0.533 | 0.0929 | 0.0905 |
| NCI-H1755 | 0.452 | 0.442 | 0.429 | 0.316 | 0.328 | 0.463 | 0.388 | 0.474 | 0.224 | 0.181 | 0.785 | 0.688 | 0.467 | 0.314 | 0.266 | 0.457 | 0.371 | 0.355 | 0.203 | 0.169 |
| NCI-H1437 | 0.3 | 0.279 | 0.253 | 0.206 | 0.192 | 1.16 | 0.969 | 0.53 | 0.244 | 0.159 | 0.958 | 0.79 | 0.298 | 0.142 | 0.118 | 0.533 | 0.392 | 0.307 | 0.0976 | 0.0782 |
| NCI-H2085 | 0.423 | 0.476 | 0.488 | 0.38 | 0.244 | 0.37 | 0.401 | 0.357 | 0.273 | 0.253 | 0.739 | 0.731 | 0.316 | 0.295 | 0.203 | 0.47 | 0.45 | 0.463 | 0.273 | 0.273 |
| H3255 | 0.315 | 0.285 | 0.306 | 0.256 | 0.264 | 0.861 | 0.924 | 0.757 |  | 0.518 | 0.599 | 0.536 | 0.485 |  | 0.34 | 0.458 | 0.467 | 0.247 | 0.21 | 0.187 |
